# In paper PMC3111241 (Anesthesiology, 2009):
# Key:
# [1] = Intravenous; conditions: for EH (hepatic extraction) / AUC(0-inf) / Cmax: 6.0 mg IV methadone HCl; for AUC(0-t) / AUC(0-inf) / Cmax: human, plasma, iv, 6 mg; for AUC(0-t): AUC0-96, 6.0 mg IV methadone HCl; for AUC(0-inf): AUC0-∞
# [2] = Oral; conditions: human, plasma, 11 mg, control
# [3] = tested on: dark-adapted pupil diameter (miosis); test: Methadone pupil effect; type: in vivo, human; conditions: for AUEC0-∞ / Maximum miosis: 6.0 mg IV and 11.0 mg oral methadone HCl
# [4] = tested on: CYP3A; conditions: in vivo; cited from earlier work
# [5] = steady-state ritonavir/indinavir
smiles,measurement,setting,value
CCC(=O)C(C[C@H](C)N(C)C)(c1ccccc1)c1ccccc1 [S-methadone],EH (hepatic extraction),[1]; acute ritonavir/indinavir,0.10 ± 0.04
same,EH (hepatic extraction),[1]; control,0.08 ± 0.02
same,EH (hepatic extraction),[1]; [5],0.10 ± 0.04
same,AUC(0-t),[1]; acute ritonavir/indinavir,353 ± 150 ng·h/mL
same,AUC(0-t),[1]; control,401 ± 81 ng·h/mL
same,AUC(0-t),[1]; [5],377 ± 170 ng·h/mL
same,AUC(0-inf),[1]; acute ritonavir/indinavir,390 ± 178 ng·h/mL
same,AUC(0-inf),[1]; control,436 ± 91 ng·h/mL
same,AUC(0-inf),[1]; [5],406 ± 185 ng·h/mL
same,Cmax,[1]; acute ritonavir/indinavir,69 ± 26 ng/mL
same,Cmax,[1]; control,90 ± 53 ng/mL
same,Cmax,[1]; [5],80 ± 33 ng/mL
same,AUC(0-t),"[2]; AUC0-96, 11.0 mg oral methadone HCl",639 ± 165 ng·h/mL
same,AUC(0-inf),"[2]; AUC0-∞, 11.0 mg oral methadone HCl",710 ± 185 ng·h/mL
same,Cmax,"[2]; Cmax, 11.0 mg oral methadone HCl",23 ± 6 ng/mL
CCC(=O)C(CC(C)N(C)C)(c1ccccc1)c1ccccc1 (centres unmarked) [methadone],AUEC0-∞,[3]; acute ritonavir/indinavir,65 ± 26 mm/h
same,Maximum miosis,[3]; acute ritonavir/indinavir,3.5 ± 0.7 mm
same,AUEC0-∞,[3]; control,52 ± 24 mm/h
same,Maximum miosis,[3]; control,2.9 ± 1.0 mm
same,AUEC0-∞,[3]; [5],48 ± 25 mm/h
same,Maximum miosis,[3]; [5],3.2 ± 0.8 mm
same,"methadone miosis and concentration-effect relationships, change by acute or steady-state ritonavir/indinavir",[3]; in vivo,not significantly changed
Cc1c(O)cccc1C(=O)N[C@@H](CSc1ccccc1)[C@H](O)CN1C[C@H]2CCCC[C@H]2C[C@H]1C(=O)NC(C)(C)C [nelfinavir],inhibition of hepatic and first-pass CYP3A,[4],> 75%
